Measurements taken from the NIST ThermoML archive (doi:10.1016/j.jct.2015.03.019).
± gives the expanded uncertainty stated by the source.

Test: Molar enthalpy of transition or fusion
Conditions: Crystal; Adiabatic calorimetry

Molar enthalpy of transition or fusion: 5.255 ± 0.0335 kcal/mol
SMILES: CC(C)(C)c1ccc(Oc2ccccc2)cc1 [4-tert-butylphenyl phenyl ether]
